Experimental data: PubChem BioAssay (NCI)
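Cells were grown in 96-well plates and exposed to each compound for 48 hours at five concentrations; endpoints were interpolated linearly between bracketing concentrations, or set to the highest concentration if not reached. GI50 = concentration required for 50% inhibition of growth. TGI: total growth inhibition.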

Tests used:
Test in all cases: inhibition of tumour cell growth, NCI panel, 48 h
KM12 colon = tested on: KM12 colon
UACC-62 melanoma = tested on: UACC-62 melanoma
UO-31 renal = tested on: UO-31 renal
COLO 205 colon = tested on: COLO 205 colon
MDA-MB-231 breast = tested on: MDA-MB-231 breast
SF-295 CNS = tested on: SF-295 CNS
HCT-15 colon = tested on: HCT-15 colon
DU-145 prostate = tested on: DU-145 prostate
NCI-H522 lung = tested on: NCI-H522 lung
OVCAR-4 ovarian = tested on: OVCAR-4 ovarian
OVCAR-8 ovarian = tested on: OVCAR-8 ovarian
A549 NSCLC = tested on: A549 NSCLC
UACC-257 melanoma = tested on: UACC-257 melanoma
SK-MEL-2 melanoma = tested on: SK-MEL-2 melanoma
OVCAR-3 ovarian = tested on: OVCAR-3 ovarian
CCRF-CEM leukemia = tested on: CCRF-CEM leukemia
SK-MEL-5 melanoma = tested on: SK-MEL-5 melanoma
NCI-H460 lung = tested on: NCI-H460 lung
U251 CNS = tested on: U251 CNS
786-0 renal = tested on: 786-0 renal
SF-539 CNS = tested on: SF-539 CNS
HCC-2998 colon = tested on: HCC-2998 colon
HL-60(TB) leukemia = tested on: HL-60(TB) leukemia
HOP-62 NSCLC = tested on: HOP-62 NSCLC
A498 renal = tested on: A498 renal
SN12C renal = tested on: SN12C renal
NCI-H226 lung = tested on: NCI-H226 lung
LOX IMVI melanoma = tested on: LOX IMVI melanoma
T-47D breast = tested on: T-47D breast
SR leukemia = tested on: SR leukemia
MOLT-4 leukemia = tested on: MOLT-4 leukemia
ACHN renal = tested on: ACHN renal
HS 578T breast = tested on: HS 578T breast
CAKI-1 renal = tested on: CAKI-1 renal
HOP-92 NSCLC = tested on: HOP-92 NSCLC
SK-OV-3 ovarian = tested on: SK-OV-3 ovarian
TK-10 renal = tested on: TK-10 renal
RPMI-8226 leukemia = tested on: RPMI-8226 leukemia
HCT-116 colon = tested on: HCT-116 colon
SNB-75 CNS = tested on: SNB-75 CNS
IGROV1 ovarian = tested on: IGROV1 ovarian
RXF 393 renal = tested on: RXF 393 renal
SW-620 colon = tested on: SW-620 colon
HT29 colon = tested on: HT29 colon
NCI/ADR-RES ovarian = tested on: NCI/ADR-RES ovarian
SNB-19 CNS = tested on: SNB-19 CNS
M14 melanoma = tested on: M14 melanoma
MCF7 breast = tested on: MCF7 breast
NCI-H23 lung = tested on: NCI-H23 lung
K-562 leukemia = tested on: K-562 leukemia
MDA-MB-435 = tested on: MDA-MB-435
MALME-3M melanoma = tested on: MALME-3M melanoma
BT-549 breast = tested on: BT-549 breast
SF-268 CNS = tested on: SF-268 CNS
EKVX NSCLC = tested on: EKVX NSCLC
OVCAR-5 ovarian = tested on: OVCAR-5 ovarian
PC-3 prostate = tested on: PC-3 prostate

Q: Which results are given for `COC(=O)[C@]12CC[C@@H](C)[C@H](C)[C@@H]1C1=CC[C@@H]3[C@@]4(C)C(c5ncon5)=C[C@@](C)(CO)C4=CC[C@@]3(C)[C@]1(C)CC2`?
A: GI50 (KM12 colon): 1.98 µM; TGI (KM12 colon): 3.99 µM; GI50 (UACC-62 melanoma): 1.89 µM; TGI (UACC-62 melanoma): 4.02 µM; GI50 (UO-31 renal): 1.69 µM; TGI (UO-31 renal): 3.2 µM; GI50 (COLO 205 colon): 1.96 µM; TGI (COLO 205 colon): 4.15 µM; GI50 (MDA-MB-231 breast): 2.2 µM; TGI (MDA-MB-231 breast): 5.08 µM; GI50 (SF-295 CNS): 2.11 µM; TGI (SF-295 CNS): 5.03 µM; GI50 (HCT-15 colon): 1.91 µM; TGI (HCT-15 colon): 4.08 µM; GI50 (DU-145 prostate): 1.77 µM; TGI (DU-145 prostate): 3.26 µM; GI50 (NCI-H522 lung): 1.71 µM; TGI (NCI-H522 lung): 3.57 µM; GI50 (OVCAR-4 ovarian): 3.1 µM; TGI (OVCAR-4 ovarian): 11.8 µM; GI50 (OVCAR-8 ovarian): 3.41 µM; TGI (OVCAR-8 ovarian): 10.2 µM; GI50 (A549 NSCLC): 4.48 µM; TGI (A549 NSCLC): 15.5 µM; GI50 (UACC-257 melanoma): 2.1 µM; TGI (UACC-257 melanoma): 4.34 µM; GI50 (SK-MEL-2 melanoma): 2.05 µM; TGI (SK-MEL-2 melanoma): 4.22 µM; GI50 (OVCAR-3 ovarian): 1.79 µM; TGI (OVCAR-3 ovarian): 3.25 µM; GI50 (CCRF-CEM leukemia): 1.89 µM; TGI (CCRF-CEM leukemia): 4.35 µM; GI50 (SK-MEL-5 melanoma): 1.88 µM; TGI (SK-MEL-5 melanoma): 3.41 µM; GI50 (NCI-H460 lung): 1.97 µM; TGI (NCI-H460 lung): 3.95 µM; GI50 (U251 CNS): 2.02 µM; TGI (U251 CNS): 3.84 µM; GI50 (786-0 renal): 2.91 µM; TGI (786-0 renal): 8.58 µM; GI50 (SF-539 CNS): 1.97 µM; TGI (SF-539 CNS): 3.89 µM; GI50 (HCC-2998 colon): 2.14 µM; TGI (HCC-2998 colon): 3.79 µM; GI50 (HL-60(TB) leukemia): 2.13 µM; TGI (HL-60(TB) leukemia): 5.04 µM; GI50 (HOP-62 NSCLC): 2.42 µM; TGI (HOP-62 NSCLC): 5.08 µM; GI50 (A498 renal): 1.69 µM; TGI (A498 renal): 3.42 µM; GI50 (SN12C renal): 3.05 µM; TGI (SN12C renal): 10.6 µM; GI50 (NCI-H226 lung): 1.99 µM; TGI (NCI-H226 lung): 4.4 µM; GI50 (LOX IMVI melanoma): 1.62 µM; TGI (LOX IMVI melanoma): 2.97 µM; GI50 (T-47D breast): 1.99 µM; TGI (T-47D breast): 5.86 µM; GI50 (SR leukemia): 1.55 µM; TGI (SR leukemia): 4.21 µM; GI50 (MOLT-4 leukemia): 1.69 µM; TGI (MOLT-4 leukemia): 3.92 µM; GI50 (ACHN renal): 1.9 µM; TGI (ACHN renal): 3.56 µM; GI50 (HS 578T breast): 2.52 µM; TGI (HS 578T breast): 8.03 µM; GI50 (CAKI-1 renal): 4.06 µM; TGI (CAKI-1 renal): 26 µM; GI50 (HOP-92 NSCLC): 1.98 µM; TGI (HOP-92 NSCLC): 4.04 µM; GI50 (SK-OV-3 ovarian): 4.49 µM; TGI (SK-OV-3 ovarian): 15.5 µM; GI50 (TK-10 renal): 2.17 µM; TGI (TK-10 renal): 5.36 µM; GI50 (RPMI-8226 leukemia): 2.32 µM; TGI (RPMI-8226 leukemia): 6.33 µM; GI50 (HCT-116 colon): 1.68 µM; TGI (HCT-116 colon): 3.2 µM; GI50 (SNB-75 CNS): 1.62 µM; TGI (SNB-75 CNS): 4.33 µM; GI50 (IGROV1 ovarian): 2.47 µM; TGI (IGROV1 ovarian): 7.19 µM; GI50 (RXF 393 renal): 1.75 µM; TGI (RXF 393 renal): 3.33 µM; GI50 (SW-620 colon): 1.96 µM; TGI (SW-620 colon): 3.85 µM; GI50 (HT29 colon): 1.94 µM; TGI (HT29 colon): 3.88 µM; GI50 (NCI/ADR-RES ovarian): 2.28 µM; TGI (NCI/ADR-RES ovarian): 5.72 µM; GI50 (SNB-19 CNS): 2.84 µM; TGI (SNB-19 CNS): 11.6 µM; GI50 (M14 melanoma): 2.07 µM; TGI (M14 melanoma): 4.88 µM; GI50 (MCF7 breast): 1.42 µM; TGI (MCF7 breast): 2.9 µM; GI50 (NCI-H23 lung): 2.01 µM; TGI (NCI-H23 lung): 4.52 µM; GI50 (K-562 leukemia): 2.22 µM; TGI (K-562 leukemia): 4.82 µM; GI50 (MDA-MB-435): 1.72 µM; TGI (MDA-MB-435): 3.36 µM; GI50 (MALME-3M melanoma): 1.67 µM; TGI (MALME-3M melanoma): 3.55 µM; GI50 (BT-549 breast): 2.39 µM; TGI (BT-549 breast): 6.38 µM; GI50 (SF-268 CNS): 2.34 µM; TGI (SF-268 CNS): 6.89 µM; GI50 (EKVX NSCLC): 2.02 µM; TGI (EKVX NSCLC): 4.37 µM; GI50 (OVCAR-5 ovarian): 5.2 µM; TGI (OVCAR-5 ovarian): 26.8 µM; GI50 (PC-3 prostate): 2.1 µM; TGI (PC-3 prostate): 4.7 µM
